Test results published in US20240294478A1, “ANTI-CANCER COMPOUNDS AND METHODS OF USE” (YALE UNIVERSITY, priority 2021, published 2024).
Read-outs that look alike come from different tables or passages of the source.

Columns and labels:
[1] = system: LN229 MGMT+/MMR− cells; test: Short-term cell viability assay, LN229 MGMT+/MMR- (shRNA targeting MSH2); type: cell-based; details: Homo sapiens
Method: (§1) LN229 MGMT- and MGMT+ cell lines were a gift from B. Kaina (Johannes Gutenberg University Mainz, Mainz, Germany) and grown in Gibco® Duilbecco's Modified Eagle Medium with 10% fetal bovine serum (DMEM). For each compound tested, the relationship between MGMT status and MMR status and compound activity, in terms of IC50 values ([…]), was determined by the following method. On day 1, LN229 isogenic cells of varying MGMT and MMR status were seeded in 96 well format at a density of 2000 cells/well in 100 μL of DMEM media and allowed to adhere overnight. On day 2, a drug master plate was made with 100×the desired maximal concentration of test compound and serially diluted by 2 until 100×the minimal desired concentration, with one DMSO control. Then daughter plates were created with varied concentrations from 3-times the minimal concentration to 3-times the maximal desired concentration. Afterwards, 50 μL of daughter drug plate was added to 100 μL of the seeded cells for a final concentration of 1×in triplicate. Cells were allowed to grow for 6 days. On day 7, the cells were fixed, and stained with Hoechst nuclear dye and imaged to determine growth inhibition.
(§2) For each compound tested, the relationship between MGMT status and MMR status and compound activity, in terms of IC50 values (in μM), was determined. In addition, for each compound, the therapeutic index (TI) was calculated, according to the equation MGMT TI=IC50 (MGMT+/MMR+) divided by IC50 (MGMT−/MMR+). The T1 indicates the efficacy of a compound in treating the targeted MGMT-cancer cells as compared to potential for the same compound to damage, or have adverse effects against, normal cells which are MGMT+cells, The higher the value of the TI, the safer the compound is. […] MMR RI (resistance index)=IC50 (MGMT−/MMR−) divided by IC50 (MGMT−/MMR+). The higher the value of the RI, the less likely that resistance to the compound will develop.
(§3) Short-term Cell Viability Assay. Cells were seeded in 96-well plates at 1000 or 2000 cells/well and allowed to adhere at 23° C. for 60 min and then incubated overnight at 37° C. Cells were treated with indicated concentrations of compounds in triplicate for 4-6 days prior to fixation with 3.7% paraformaldehyde and nuclear staining with 1 μg/mL Hoechst 33342 dye. Cells were imaged on a Cytation 3 imaging reader (BioTek) and quantified using CellProfiler software. For in vitro short-term growth delay experiments, IC50 values were determined from the nonlinear regression equation, [inhibitor] vs normalized response with variable slope.

[2] = system: MGMT+ LN229 cells; test: Clonogenic survival assay, LN229 MGMT+ cells; type: cell-based, human
Method: (§4) In vitro clonogenic survival assays (CSAs) were performed using four isogenic LN229 glioblastoma cell lines.
(§5) Clonogenic Cell Survival Assay. Cells of each line were pretreated with the test drug in culture for 48-72 hours at the specified dilutions. The cells were then immediately seeded in six-well plates in triplicate at three-fold dilutions, ranging from 9000 to 37 cells per well. Depending on colony size, these plates were kept in the incubator for 10 to 14 days. After incubation, colonies were washed in phosphate-buffered saline (PBS) and stained with crystal violet. Colonies were counted by hand. Counts were normalized to plating efficiency of the corresponding treatment condition.

[3] = system: LN229 MGMT−/MMR+ cells; test: Short-term cell viability assay, LN229 MGMT-/MMR+; type: cell-based, human; details: for IC50: Homo sapiens, read-out: IC50 against LN229 cell lines, MGMT− MMR+; for TI / RI, in words: LN229 isogenic lines; for MGMT− TI (therapeutic index): IC50 (MGMT+/MMR+) divided by IC50 (MGMT−/MMR+)
Method: as §1, §2, §3

[4] = system: LN229 MGMT−/MMR− cells; test: Short-term cell viability assay, LN229 MGMT-/MMR- (shRNA targeting MSH2); type: cell-based, human; details: for IC50: Homo sapiens, read-out: IC50 against LN229 cell lines, MGMT− MMR−; for activity in MGMT−/MMR− cells, in words: LN229 MGMT−/MMR−; for MGMT− RI (resistance index): IC50 (MGMT−/MMR−) divided by IC50 (MGMT−/MMR+)
Method: as §1
For each compound tested, the relationship between MGMT status and MMR status and compound activity, in terms of IC50 values (in μM), was determined. In addition, for each compound, the therapeutic index (TI) was calculated, according to the equation MGMT TI=IC50 (MGMT+/MMR+) divided by IC50 (MGMT−/MMR+). […] MMR RI (resistance index)=IC50 (MGMT−/MMR−) divided by IC50 (MGMT−/MMR+).
as §3, with “Cells were treated with indicated concentrations of compounds in triplicate for 4-6 days prior to fixation with 3.7% paraformaldehyde and nuclear staining with 1 μg/mL Hoechst 33342 dye.” left out

[5] = system: LN229 MGMT+/MMR+ cells; test: Short-term cell viability assay, LN229 MGMT+/MMR+; type: cell-based; details: Homo sapiens, read-out: IC50 against LN229 cell lines, MGMT+ MMR+
Method: as §1, §2, §3

[6] = system: MGMT− LN229 cells; test: Clonogenic survival assay, LN229 MGMT- cells; type: cell-based, human
Method: as §4, §5

[7] = system: four isogenic LN229 glioblastoma cell lines; test: Short-term cell viability assays, statements across the isogenic lines; type: cell-based, human; details: regardless of MMR status
Method: as §1, §2, §3

[8] = system: PD20 cells, deficient in FANCD2 (FANCD2−/−) or complemented with FANCD2; test: Short-term viability assay, PD20 cells; type: cell-based, human; details: PD20 FANCD2−/− vs +FANCD2
Method: FIGS. 8A-8K. (FIG. 8A) Change in percent cells with 1 micronuclei from baseline (DMSO control) after treatment as in FIGS. 5A and 5C. […] (FIG. 8B) Short-term viability assay curves for KL-50 in PD20 cells, deficient in FANCD2 (FANCD2−/−) or complemented with FANCD2 (+FANCD2). (FIG. 8C) Short-term viability assay curves for KL-50 in PEO4 (BRCA2+) and PEO1 (BRCA2−/−) cells pre-treated with 0.01% DMSO control or 10 μM O^6BG (+O^6BG) for 1 h prior to KL-50 addition. (FIG. 8D) Short-term viability assay curves for KL-50 in DLD1 BRCA2+/− and BRCA2−/−cells pre-treated with 0.01% DMSO control or 10 μM O^6BG (+O^6BG) for 1 h prior to KL-50 addition. For FIGS. 8B-8D, points, mean; error bars, SD; n=3 technical replicates. […] Change in percent cells with 1 micronuclei from baseline (DMSO control) after treatment with olaparib (10 μM) for 48 h in LN229 MGMT+/−, MMR+/−cells. […] Western blot analysis of FANCD2 ubiquitination in LN229 MGMT+/−, MMR+/−cells and PD20 FANCD2-deficient cells, complemented with empty vector (FANCD2+EV), wildtype FANCD2 (PD20+FD2) or ubiquitination-mutant FANCD2 (PD20+KR). The % FANCD2 ubiquitination (% FANCD2 Ub) is quantified as the background-corrected integrated band intensity of the upper band divided by the sum of the background-corrected integrated band intensities of the upper and lower bands. The fold change in % FANCD2 ubiquitination is presented for each cell line relative to DMSO-treated cells. Vinculin serves as loading control. For 8J-8K, points, mean; error bars, SD; n=3 technical replicates.
as §3, with “Cells were treated with indicated concentrations of compounds in triplicate for 4-6 days prior to fixation with 3.7% paraformaldehyde and nuclear staining with 1 μg/mL Hoechst 33342 dye.” left out

[9] = system: MGMT−/MMR− cells; test: IR alkaline comet assay, LN229 MGMT-/MMR-, time course; type: cell-based, human; details: time points 2-24 h
Method: The IR alkaline comet assay, adapted for ICL detection was performed to determine if ICLs were formed in MGMT-cells treated with KL-50. In this assay, cells were sequentially exposed to genotoxins and ionizing radiation, and then analyzed by single cell alkaline gel electrophoresis. Attenuation of the IR-induced comet tail is indicative of ICL formation.
IR Alkaline Comet Assay. This assay was performed utilizing the CometAssay™ Kit (Trevigen) according to the alkaline assay protocol, with the addition of slide irradiation post-lysis. Cells were trypsinized, washed with 1×PBS, added to melted Comet LMAgarose (Trevigen), and spread on Trevigen CometSlides at a density of 1000 cells per sample in 50 μL. Lysis solution (Trevigen) with 10% DMSO was added overnight at 4° C. Slides were removed from lysis buffer and irradiated to 0 or 10 Gy using an XRAD 320 X-Ray System (Precision X-Ray) at 320 kV, 12.5 mA, and 50.0 cm SSD, with a 2 mm Al filter and 20 cm×20 cm collimator. Slides were then placed in alkaline buffer (200 mM NaOH, 1 mM EDTA) for 45 min, followed by electrophoresis in 850 mL alkaline buffer for 45 min at 4° C. Slides were washed and stained with SYBR gold (Invitrogen) per Trevigen assay protocol. Slides were imaged on a Cytation 3 imaging reader (BioTek), and comets were analyzed using CometScore 2.0 software (TriTek).

[10] = LN-229, Table II, read-out: IC50 against LN229 cell lines, MGMT MMR−
[11] = LN-229, 144 h, Table 1, 6 days growth, read-out: IC50 against LN229 cell lines, MGMT+ MMR−
[12] = LN-229, 144 h, Table 1, 6 days growth
[13] = LN-229, 144 h, Table 1, 6 days growth, Hoechst nuclear count

Compound: O=NN(CCCl)C(=O)NC1CCCCC1 [CCNU, 1-(2-chloroethyl)-3-cyclohexyl-1-nitrosourea, reference compound]
- IC50 [1, 10]: 26.8 ± 7.3 µM
- clonogenic survival, activity in MGMT+ cells ([2]; irrespective of MMR status): cytotoxic to MGMT+cells
- IC50 ([3]; LN-229, Table II): 6.3 ± 0.3 µM
- TI / RI, in words [3]: poor TI
- MGMT− TI (therapeutic index) ([3]; Table II): 3.4
- IC50 ([4]; LN-229, Table II): 4.2 ± 0.2 µM
- activity in MGMT−/MMR− cells, in words [4]: effective against MGMT−/MMR− cells
- MGMT− RI (resistance index) ([4]; Table II): 0.7
- IC50 ([5]; LN-229, Table II): 21.6 ± 3.2 µM
- clonogenic survival, activity in MMR− cells ([6]; isogenic cells lacking MMR): effective in MMR− cells

Compound: NC(=O)c1[nH]cnc1/N=N/NCCF [Compound E1, 5-[(1E)-3-(2-fluoroethyl)triaz-1-en-1-yl]-1H-imidazole-4-carboxamide]
- IC50 [1, 11]: > 100 µM
- surviving fraction of MGMT+ cells ([2]; at concentrations as high as 1000 μM of E1): above 0.1
- surviving fraction of MGMT+ cells ([2]; at the same concentration (less than 100 μM of E1), regardless of MMR status): ~1.0
- IC50 [3, 12]: 24 ± 2 µM
- IC50 [4, 12]: 22 ± 1 µM
- activity in MGMT−/MMR− cells, in words [4]: exquisite sensitivity
- IC50 [5, 13]: > 100 µM
- surviving fraction of MGMT− cells ([6]; at less than 100 μM of E1, regardless of MMR status): dropped sharply
- activity in MGMT+ cells, in words [7]: limited activity

Compound: NC(=O)c1nc[nH]c1/N=N/N(CCF)C(=O)Cc1ccccc1 [Compound E2, (E)-5-(3-(2-fluoroethyl)-3-(2-phenylacetyl)triaz-1-en-1-yl)-1H-imidazole-4-carboxamide]
- IC50 [1, 11]: 72 ± 30 µM
- IC50 [3, 12]: 28 ± 1 µM
- IC50 [4, 12]: 21 ± 1 µM
- IC50 [5, 13]: > 100 µM

Compound: CC(=O)N(CCF)/N=N/c1[nH]cnc1C(N)=O [Compound E3, (E)-5-(3-acetyl-3-(2-fluoroethyl)triaz-1-en-1-yl)-1H-imidazole-4-carboxamide]
- IC50 [1, 11]: > 100 µM
- IC50 [3, 12]: 40 ± 2 µM
- IC50 [4, 12]: 46 ± 4 µM
- activity in MGMT−/MMR− cells, in words [4]: exquisite sensitivity
- IC50 [5, 13]: > 100 µM
- activity in MGMT+ cells, in words [7]: limited activity

Compound: NC(=O)c1nc[nH]c1/N=N/N(CCF)C(=O)OCc1ccccc1 [Compound E4]
- IC50 [1, 11]: 11 ± 1 µM
- IC50 [3, 12]: 8 ± 1 µM
- IC50 [4, 12]: 17 ± 1 µM
- IC50 [5, 13]: 14 ± 1 µM

Compound: CN(CCF)/N=N/c1nc[nH]c1C(N)=O [Compound E5, 4-[(1E)-3-(2-fluoroethyl)-3-methyltriaz-1-en-1-yl]-1H-imidazole-5-carboxamide]
- IC50 ([1]; LN-229, 144 h, read-out: IC50 against LN229 cell lines, MGMT+ MMR−): > 100 µM
- IC50 ([3]; LN-229, 144 h): 14.2 ± 1 µM
- IC50 ([4]; LN-229, 144 h): > 100 µM
- IC50 ([5]; LN-229, 144 h): > 199 µM

Compound: CO[C@@]12[C@H](COC(N)=O)C3=C(C(=O)C(C)=C(N)C3=O)N1C[C@@H]1N[C@@H]12 [MMC, Mitomycin C]
- sensitivity of FANCD2-deficient cells [8]: hypersensitivity to crosslinking agents in FANCD2−/−cells

Compound: NC(=O)c1ncn2c(=O)n(CCCl)nnc12 [MTZ, 3-(2-chloroethyl)-4-oxoimidazo[5,1-d][1,2,3,5]tetrazine-8-carboxamide, reference compound]
- IC50 [1, 10]: 50.8 ± 4.2 µM
- DNA damage in unirradiated samples [9]: maximal damage at 2 h
- DNA mobility after IR, rate of ICL formation [9]: reduced DNA mobility within 2 h
- IC50 ([3]; LN-229, Table II): 9 ± 0.4 µM
- TI / RI, in words [3]: poor TI
- MGMT− TI (therapeutic index) ([3]; Table II): 6.9
- IC50 ([4]; LN-229, Table II): 6.9 ± 0.7 µM
- activity in MGMT−/MMR− cells, in words [4]: effective against MGMT−/MMR− cells
- MGMT− RI (resistance index) ([4]; Table II): 0.8
- IC50 ([5]; LN-229, Table II): 61.9 ± 4.7 µM
